Paper PMC3351444, “Molecular Evolution of a Peptide GPCR Ligand Driven by Artificial Neural Networks” (PLoS ONE, 2012)
Where two headings read alike, the source gives them in different places. Square brackets hold non-standard residues; d marks the D form. Ends that are not written are not given here. Peptide text beside a SMILES is read from it.

How the values were obtained:
human CMKLR1 = biological target: T1, human CMKLR1 (Homo sapiens, UniProt Q99788); experiment: Ca2+ mobilization (CellLux imaging) agonist assay in HEK293A cells expressing CMKLR1 and Gα15; format: cell-based
T1 construct: host or cells: HEK293A (Invitrogen), stably expressing human Gα15
T1 sequence (Q99788 1-373): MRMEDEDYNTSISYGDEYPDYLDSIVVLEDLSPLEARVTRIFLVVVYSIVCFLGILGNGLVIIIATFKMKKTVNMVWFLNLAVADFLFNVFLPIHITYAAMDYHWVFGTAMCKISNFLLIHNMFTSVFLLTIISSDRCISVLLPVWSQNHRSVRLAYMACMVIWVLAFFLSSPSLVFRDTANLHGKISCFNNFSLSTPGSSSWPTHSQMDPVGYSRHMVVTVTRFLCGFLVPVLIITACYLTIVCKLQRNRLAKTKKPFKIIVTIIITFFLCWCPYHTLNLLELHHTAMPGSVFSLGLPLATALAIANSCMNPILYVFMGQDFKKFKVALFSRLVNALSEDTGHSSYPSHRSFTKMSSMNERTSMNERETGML
Description: HEK293A cells (Invitrogen) expressing CMKLR1 and Gα15 were seeded at 5*10^4 cells/well in a poly-D-lysine coated 96-well black well/clear bottom plate (BD Falcon) and cultured overnight. From eighteen to twenty-four hours later, cells were loaded with FLUO4-AM (Invitrogen). Then the cells were washed two times with C1 solution (130 mM NaCl, 5 mM KCl, 10 mM HEPES pH 7.4, 2 mM CaCl2, and 10 mM Glucose). After the final wash, a 100 µL of residual volume remained on the cells. Peptides were dissolved in 10% DMSO to a concentration of 1 mM and were diluted in C1 solution with 0.1 % BSA. They were aliquoted as 2x solutions in 96-well plates and were simultaneously transferred by the robotic system within the imager from the ligand plate to the cell plate. […] Fluorescence data was generated in duplicate and experiments were repeated for at least three times. […] For the calculation of concentration-response curves, signals of two wells receiving the same concentration of test substances were averaged and the fluorescence changes of corresponding buffer C1 wells were subtracted. Signals were normalized to background fluorescence. For the calculation of EC50 values, plots of amplitude versus concentrations were prepared in SigmaPlot 11.

[1] = In vitro peptide stability in human serum (RP-HPLC); details: for half-life at 50 µg/mL: human, human serum, 25% (v/v) in RPMI
Description: The initial time is recorded, and at known time intervals 50 µL of the reaction solution is removed and added to 100 µL of 6% aqueous trichloroacetic acid (TCA) for precipitation of serum proteins. […] The reaction supernatant is then analyzed using RP-HPLC (Agilent 1200 LC System) on a ZORBAX Eclipse XDB-C18, 4.6×150 mm, 5 µm column (Agilent). […] Fluorescence is detected at an excitation wavelength of 280 nm and emission wavelength of 340 nm. Kinetic analysis was carried out by least-squares analysis of the logarithm of the integration peak area versus time.

[2] = Ca2+ mobilization, CMKLR1, decimal comma
[3] = Ca2+ mobilization, CMKLR1, decimal comma, NR where no EC50 is given, read-out: EC50

Compound | max response (human CMKLR1; [2]) | EC50 (human CMKLR1; [3]) | half-life at 50 µg/mL [1] | EC50 (human CMKLR1; intracellular calcium mobilization, HEK293 cells expressing CMKLR1, mean of three independent experiments ± SD, read-out: activity: EC50 ±SD) | t1/2 ([1]; metabolic stability in human serum)
CC(C)[C@H](NC(=O)[C@H](N)Cc1ccc(O)cc1)C(=O)N1CCC[C@H]1C(=O)NCC(=O)N[C@@H](CCC(N)=O)C(=O)N[C@@H](Cc1ccc(O)cc1)C(=O)N[C@@H](C)C(=O)N[C@@H](Cc1ccccc1)C(=O)N[C@@H](CO)C(=O)O [compound 91] (H-[dY]VPGQYAFS-OH; N-terminus assumed) | 1,58 DF/F0 | 53.6 nM | 151 min | – | –
CC(C)C[C@H](NC(=O)[C@@H](N)Cc1ccc(O)cc1)C(=O)N1CCC[C@H]1C(=O)N[C@@H](Cc1ccc(O)cc1)C(=O)N1CCC[C@H]1C(=O)N[C@@H](Cc1ccc(O)cc1)C(=O)N1CCC[C@@H]1C(=O)N[C@@H](Cc1ccccc1)C(=O)N[C@H](Cc1ccccc1)C(=O)O [compound 147] (H-YLPYPY[dP]F[dF]-OH; N-terminus assumed) | 1,36 DF/F0 | 207 nM | 28 min | – | –
CC(C)C[C@H](NC(=O)[C@@H](N)Cc1ccc(O)cc1)C(=O)N1CCC[C@H]1C(=O)N[C@H](Cc1c[nH]c2ccccc12)C(=O)N[C@@H](CCC(N)=O)C(=O)N[C@@H](Cc1ccc(O)cc1)C(=O)N[C@@H](C)C(=O)N[C@@H](Cc1ccccc1)C(=O)N[C@H](Cc1ccccc1)C(=O)O [compound 127] (H-YLP[dW]QYAF[dF]-OH; N-terminus assumed) | 1,52 DF/F0 | 35.6 nM | 124 min | – | –
CC(C)C[C@H](NC(=O)[C@@H]1CCCN1C(=O)[C@@H]1CCCN1)C(=O)N[C@H](Cc1c[nH]c2ccccc12)C(=O)N[C@@H](CCC(N)=O)C(=O)N[C@@H](Cc1ccc(O)cc1)C(=O)N[C@@H](C)C(=O)N[C@H](CC(=O)O)C(=O)N[C@H](CO)C(=O)O [compound 153] (H-PPL[dW]QYA[dD][dS]-OH; N-terminus assumed) | 1,31 DF/F0 | 313 nM | 86 min | – | –
CSCC[C@H](NC(=O)[C@H](N)Cc1ccc(O)cc1)C(=O)N1CCC[C@H]1C(=O)NCC(=O)N[C@@H](CCC(N)=O)C(=O)N[C@@H](Cc1ccc(O)cc1)C(=O)N[C@@H](C)C(=O)N[C@@H](Cc1ccccc1)C(=O)N[C@@H](CO)C(=O)O [compound 85] (H-[dY]MPGQYAFS-OH; N-terminus assumed) | 1,78 DF/F0 | 11.7 nM | 75 min | – | –
FLPGQFLPG-OH [compound 63] | 0,81 DF/F0 | 554 nM | 46 min | – | –
FLPGALGFF-OH [compound 60] | 0,69 DF/F0 | 406 nM | 19 min | – | –
CC(C)C[C@H](NC(=O)[C@H](Cc1ccccc1)NC(=O)[C@H](CCC(N)=O)NC(=O)CNC(=O)[C@H]1CCCN1C(=O)[C@@H](CC(C)C)NC(=O)[C@@H](N)Cc1ccc(O)cc1)C(=O)N[C@@H](Cc1ccccc1)C(=O)N[C@@H](CO)C(=O)O [compound 75] (H-Y[dL][dP]GQFLFS-OH; N-terminus assumed) | 0,99 DF/F0 | 5580 nM | 49 min | – | –
CC(C)C[C@H](NC(=O)[C@@H](N)Cc1ccc(O)cc1)C(=O)N1CCC[C@H]1C(=O)N[C@H](C)C(=O)N[C@@H](CCC(N)=O)C(=O)N[C@@H](Cc1ccc(O)cc1)C(=O)N[C@@H](C)C(=O)N[C@@H](Cc1ccccc1)C(=O)N[C@H](CO)C(=O)O [YLPaQYAFs] (H-YLP[dA]QYAF[dS]-OH; N-terminus assumed) | – | – | 110 ± 26 min | 4.42 ± 3.41 nM | –
CC(C)C[C@H](N)C(=O)N[C@H](Cc1c[nH]c2ccccc12)C(=O)NCC(=O)NCC(=O)N1CCC[C@H]1C(=O)N[C@@H](Cc1ccc(O)cc1)C(=O)N[C@@H](C)C(=O)N[C@H](CC(=O)O)C(=O)N[C@@H](CO)C(=O)O [compound 131] (H-L[dW]GGPYA[dD]S-OH; N-terminus assumed) | 1,67 DF/F0 | 53.2 nM | 551 min | – | –
C[C@H](NC(=O)[C@H](Cc1ccc(O)cc1)NC(=O)[C@H](CCC(N)=O)NC(=O)CNC(=O)[C@@H]1CCCN1C(=O)[C@H](CCC(=O)O)NC(=O)[C@@H](N)Cc1ccc(O)cc1)C(=O)N[C@@H](Cc1ccccc1)C(=O)N[C@H](CO)C(=O)O [compound 94] (H-YEPGQYAF[dS]-OH; N-terminus assumed) | 1,56 DF/F0 | 76.2 nM | 47 min | – | –
YLPGQYAFL-OH [compound 38] | 1,05 DF/F0 | – | – | – | 27 min
CC(C)C[C@@H](NC(=O)[C@H](CCCNC(=N)N)NC(=O)[C@@H](N)Cc1ccc(O)cc1)C(=O)NCC(=O)N[C@@H](CCC(N)=O)C(=O)N[C@@H](Cc1ccc(O)cc1)C(=O)N[C@H](Cc1c[nH]c2ccccc12)C(=O)N[C@H](CC(=O)O)C(=O)N[C@H](Cc1ccccc1)C(=O)O [compound 129] (H-YR[dL]GQY[dW][dD][dF]-OH; N-terminus assumed) | 1,1 DF/F0 | 41.7 nM | 32 min | – | –
YLPGQYLFL-OH [compound 56] | 0,57 DF/F0 | 114 nM | 19 min | – | –
CC(C)C[C@H](NC(=O)[C@@H](N)Cc1ccc(O)cc1)C(=O)N1CCC[C@H]1C(=O)NCC(=O)N[C@@H](CCC(N)=O)C(=O)N[C@@H](C)C(=O)N[C@H](Cc1ccccc1)C(=O)N[C@@H](Cc1ccccc1)C(=O)N[C@@H](CCCCN)C(=O)O [compound 78] (H-YLPGQA[dF]FK-OH; N-terminus assumed) | 1,15 DF/F0 | 233000 nM | 24 min | – | –
CC(C)C[C@H](NC(=O)[C@@H](N)CCC(N)=O)C(=O)N1CCC[C@H]1C(=O)NCC(=O)N[C@@H](CCC(N)=O)C(=O)N[C@@H](Cc1ccccc1)C(=O)N[C@@H](C)C(=O)N[C@H](Cc1ccccc1)C(=O)N[C@@H](Cc1ccccc1)C(=O)O [compound 71] (H-QLPGQFA[dF]F-OH; N-terminus assumed) | 0,66 DF/F0 | 2460 nM | 31 min | – | –
CC(C)C[C@@H](NC(=O)[C@H](Cc1c[nH]cn1)NC(=O)[C@H](N)CO)C(=O)NCC(=O)N[C@@H](CCC(N)=O)C(=O)N[C@@H](Cc1ccc(O)cc1)C(=O)N[C@@H](C)C(=O)N[C@H](CC(=O)O)C(=O)N[C@@H](CO)C(=O)O [compound 96] (H-[dS]H[dL]GQYA[dD]S-OH; N-terminus assumed) | 1,63 DF/F0 | 90.5 nM | 3250 min | – | –
YLPGYLPGH-OH [compound 77] | 1,04 DF/F0 | 217000 nM | 17 min | – | –

Other lines, results leading:

max response (human CMKLR1; [2]) | EC50 (human CMKLR1; [3]) | half-life at 50 µg/mL [1] | EC50 (human CMKLR1; intracellular calcium mobilization, HEK293 cells expressing CMKLR1, mean of three independent experiments ± SD, read-out: activity: EC50 ±SD) | t1/2 ([1]; metabolic stability in human serum) | Compound
0,85 DF/F0 | 5120 nM | 39 min | – | – | LLPGLFLKL-OH [compound 74]
0,92 DF/F0 | 15.6 nM | 16 min | – | – | YLPGQYAFY-OH [compound 48]
1,55 DF/F0 | 128 nM | 421 min | – | – | CC(C)C[C@H](NC(=O)[C@H](N)Cc1ccc(O)cc1)C(=O)N1CCC[C@H]1C(=O)NCC(=O)N[C@H](Cc1c[nH]c2ccccc12)C(=O)N[C@@H](Cc1ccc(O)cc1)C(=O)N[C@@H](C)C(=O)N[C@@H](Cc1ccccc1)C(=O)N[C@H](Cc1ccccc1)C(=O)O [compound 142] (H-[dY]LPG[dW]YAF[dF]-OH; N-terminus assumed)
0,99 DF/F0 | 1870 nM | 22 min | – | – | YLPGQGAFK-OH [compound 69]
0,94 DF/F0 | 1480 nM | 54 min | – | – | YPPGQYAFF-OH [compound 68]
1,06 DF/F0 | 13.5 nM | 28 min | – | – | FLPGQYAFL-OH [compound 46]
0,73 DF/F0 | 92.9 nM | 230 min | – | – | CC(C)C[C@H](NC(=O)[C@H](N)Cc1ccccc1)C(=O)N1CCC[C@H]1C(=O)NCC(=O)N[C@@H](CCC(N)=O)C(=O)N[C@@H](Cc1ccc(O)cc1)C(=O)N[C@@H](C)C(=O)N[C@@H](Cc1ccccc1)C(=O)N[C@@H](Cc1ccccc1)C(=O)O [compound 55] (H-[dF]LPGQYAFF-OH; N-terminus assumed)
1,56 DF/F0 | 2190 nM | 29 min | – | – | C[C@H](NC(=O)[C@H](Cc1ccc(O)cc1)NC(=O)[C@H](CCC(N)=O)NC(=O)CNC(=O)[C@H](Cc1ccccc1)NC(=O)[C@H](Cc1ccc(O)cc1)NC(=O)[C@H](N)CS)C(=O)N[C@@H](Cc1ccccc1)C(=O)N[C@H](CO)C(=O)O [compound 113] (H-[dC]YFGQYAF[dS]-OH; N-terminus assumed)
